Data taken from patent US9695155B2, “Herbicidal substituted pyrimidinyloxy benzene compounds” (E. I. DU PONT DE NEMOURS AND COMPANY, priority 2013, dated 2017).

Tests used:
barnyardgrass [1] = assay: Test A postemergence; format: in vivo, Echinochloa crus-galli
Outline: (§1)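 Compounds in non-phytotoxic solvent with surfactant applied as soil spray preemergence, or postemergence to plants 2-10 cm at one- to two-leaf stage, in loam/sand. After approximately 10 days in greenhouse, injury rated visually versus untreated controls, 0 (no effect) to 100 (complete control).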

corn [2] = assay: Test A postemergence; format: in vivo, Zea mays
Outline: as §1

velvetleaf [3] = assay: Test A preemergence; format: in vivo, Abutilon theophrasti; conditions: for Velvetleaf plant response rating: 500 g ai/ha
Outline: as §1

giant foxtail [4] = assay: Test A preemergence; format: in vivo, Setaria faberii; conditions: for Foxtail, Giant plant response rating: 500 g ai/ha
Outline: as §1

large (Lg) crabgrass [5] = assay: Test A postemergence; format: in vivo, Digitaria sanguinalis
Outline: as §1

barnyardgrass [6] = assay: Test A preemergence; format: in vivo, Echinochloa crus-galli; conditions: for Barnyardgrass plant response rating: 500 g ai/ha
Outline: as §1

morningglory [7] = assay: Test A postemergence; format: in vivo, Ipomoea spp.; conditions: 0 to 100 scale where 0 is no effect and 100 is complete control
Outline: as §1

Heteranthera limosa = assay: Test B flooded paddy test; format: in vivo; conditions: Flood, 250 g ai/ha; 0 to 100 scale where 0 is no effect and 100 is complete control
Outline: (§2)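 Evaluation is visual, against untreated controls, 13 to 15 days after treatment. Before treatment, plants reached the 2-leaf stage; pots were then flooded 3 cm deep, compound was added to the water, and that level was maintained. Ratings run 0 to 100, with 100 meaning complete control.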

large (Lg) crabgrass [8] = assay: Test A preemergence; format: in vivo, Digitaria sanguinalis; conditions: for Crabgrass, Large plant response rating: 500 g ai/ha
Outline: as §1

giant foxtail [9] = assay: Test A postemergence; format: in vivo, Setaria faberii; conditions: 0 to 100 scale where 0 is no effect and 100 is complete control
Outline: as §1

wheat [10] = assay: Test A preemergence; format: in vivo, Triticum aestivum; conditions: for Wheat plant response rating: 500 g ai/ha
Outline: as §1

corn [11] = assay: Test A preemergence; format: in vivo, Zea mays; conditions: for Corn plant response rating: 500 g ai/ha
Outline: as §1

wheat [12] = assay: Test A postemergence; format: in vivo, Triticum aestivum; conditions: 0 to 100 scale where 0 is no effect and 100 is complete control
Outline: as §1

pigweed [13] = assay: Test A preemergence; format: in vivo, Amaranthus retroflexus; conditions: for Pigweed plant response rating: 500 g ai/ha
Outline: as §1

barnyardgrass [14] = assay: Test B flooded paddy test; format: in vivo, Echinochloa crus-galli; conditions: Flood, 250 g ai/ha; 0 to 100 scale where 0 is no effect and 100 is complete control
Outline: as §2

rice = assay: Test B flooded paddy test; format: in vivo, Oryza sativa; conditions: Flood, 250 g ai/ha; 0 to 100 scale where 0 is no effect and 100 is complete control
Outline: as §2

pigweed [15] = assay: Test A postemergence; format: in vivo, Amaranthus retroflexus; conditions: 0 to 100 scale where 0 is no effect and 100 is complete control
Outline: as §1

sedge, umbrella = assay: Test B flooded paddy test; format: in vivo, Cyperus difformis; conditions: Flood, 250 g ai/ha; 0 to 100 scale where 0 is no effect and 100 is complete control
Outline: as §2

morningglory [16] = assay: Test A preemergence; format: in vivo, Ipomoea spp.; conditions: for Morningglory plant response rating: 500 g ai/ha
Outline: as §1

velvetleaf [17] = assay: Test A postemergence; format: in vivo, Abutilon theophrasti; conditions: 0 to 100 scale where 0 is no effect and 100 is complete control
Outline: as §1

[18] = 125 g ai/ha, 0 to 100 scale where 0 is no effect and 100 is complete control
[19] = 500 g ai/ha, 0 to 100 scale where 0 is no effect and 100 is complete control
[20] = 0 to 100 scale, 0 no effect, 100 complete control, approx. 10 days
[21] = 0 to 100 scale where 0 is no effect and 100 is complete control
[22] = 500 g ai/ha, 0 to 100 scale, 0 no effect, 100 complete control

Compound: O=Cc1cccc(Oc2ncc(F)cn2)c1-n1cc(Cl)cn1 [Compound 93]
- Plant response rating, Barnyardgrass (barnyardgrass [1]; [18]): 0
- Plant response rating, Barnyardgrass (barnyardgrass [1]; [19]): 0
- Plant response rating, Corn (corn [2]; [18]): 0
- Plant response rating, Corn (corn [2]; [19]): 0
- Plant response rating, Velvetleaf (velvetleaf [3]; [18]): 0
- Plant response rating, Foxtail, Giant (giant foxtail [4]; [18]): 0
- Foxtail, Giant plant response rating (giant foxtail [4]; [20]): 0
- Plant response rating, Crabgrass, Large (large (Lg) crabgrass [5]; [18]): 0
- Plant response rating, Crabgrass, Large (large (Lg) crabgrass [5]; [19]): 0
- Plant response rating, Barnyardgrass (barnyardgrass [6]; [18]): 0
- Barnyardgrass plant response rating (barnyardgrass [6]; [20]): 0
- Plant response rating, Morningglory (morningglory [7]; 125 g ai/ha): 0
- Plant response rating, Morningglory (morningglory [7]; 500 g ai/ha): 0
- Plant response rating, Ducksalad (Heteranthera limosa): 0
- Plant response rating, Crabgrass, Large (large (Lg) crabgrass [8]; [18]): 0
- Crabgrass, Large plant response rating (large (Lg) crabgrass [8]; [20]): 30
- Plant response rating, Foxtail, Giant (giant foxtail [9]; 125 g ai/ha): 0
- Plant response rating, Foxtail, Giant (giant foxtail [9]; 500 g ai/ha): 0
- Plant response rating, Wheat (wheat [10]; [18]): 0
- Plant response rating, Corn (corn [11]; [18]): 0
- Corn plant response rating (corn [11]; [20]): 0
- Plant response rating, Wheat (wheat [12]; 125 g ai/ha): 0
- Plant response rating, Wheat (wheat [12]; 500 g ai/ha): 0
- Plant response rating, Pigweed (pigweed [13]; [18]): 0
- Pigweed plant response rating (pigweed [13]; [20]): 30
- Plant response rating, Barnyardgrass (barnyardgrass [14]): 0
- Plant response rating, Rice (rice): 0
- Plant response rating, Pigweed (pigweed [15]; 125 g ai/ha): 0
- Plant response rating, Pigweed (pigweed [15]; 500 g ai/ha): 0
- Plant response rating, Sedge, Umbrella (sedge, umbrella): 0
- Plant response rating, Morningglory (morningglory [16]; [18]): 0
- Morningglory plant response rating (morningglory [16]; [20]): 0
- Plant response rating, Velvetleaf (velvetleaf [17]; 125 g ai/ha): 0
- Plant response rating, Velvetleaf (velvetleaf [17]; 500 g ai/ha): 0

Compound: N#Cc1cnc(Oc2cccc(C#N)c2-n2cc(Br)cn2)nc1 [Compound 214]
- Barnyardgrass plant response rating (barnyardgrass [1]; [18]): 0
- Plant response rating, Barnyardgrass (barnyardgrass [1]; [19]): 0
- Corn plant response rating (corn [2]; [18]): 0
- Plant response rating, Corn (corn [2]; [19]): 0
- Velvetleaf plant response rating (0 to 100 scale) (velvetleaf [3]; 125 g ai/ha): 0
- Velvetleaf plant response rating (velvetleaf [3]; [21]): 0
- Foxtail, Giant plant response rating (0 to 100 scale) (giant foxtail [4]; 125 g ai/ha): 0
- Foxtail, Giant plant response rating (giant foxtail [4]; [21]): 0
- Crabgrass, Large plant response rating (large (Lg) crabgrass [5]; [18]): 0
- Plant response rating, Crabgrass, Large (large (Lg) crabgrass [5]; [19]): 0
- Barnyardgrass plant response rating (0 to 100 scale, 0 is no effect, 100 is complete control) (barnyardgrass [6]; 125 g ai/ha): 0
- Barnyardgrass plant response rating (barnyardgrass [6]; [21]): 0
- Morningglory plant response rating (morningglory [7]; 125 g ai/ha): 0
- Plant response rating, Morningglory (morningglory [7]; 500 g ai/ha): 0
- Plant response rating, Ducksalad (Heteranthera limosa): 0
- Crabgrass, Large plant response rating (0 to 100 scale) (large (Lg) crabgrass [8]; 125 g ai/ha): 0
- Crabgrass, Large plant response rating (large (Lg) crabgrass [8]; [21]): 0
- Foxtail, Giant plant response rating (giant foxtail [9]; 125 g ai/ha): 0
- Plant response rating, Foxtail, Giant (giant foxtail [9]; 500 g ai/ha): 0
- Wheat plant response rating (0 to 100 scale) (wheat [10]; 125 g ai/ha): 0
- Wheat plant response rating (wheat [10]; [21]): 0
- Corn plant response rating (0 to 100 scale) (corn [11]; 125 g ai/ha): 0
- Corn plant response rating (corn [11]; [21]): 0
- Wheat plant response rating (wheat [12]; 125 g ai/ha): 0
- Plant response rating, Wheat (wheat [12]; 500 g ai/ha): 0
- Pigweed plant response rating (0 to 100 scale) (pigweed [13]; 125 g ai/ha): 0
- Pigweed plant response rating (pigweed [13]; [21]): 0
- Plant response rating, Barnyardgrass (barnyardgrass [14]): 0
- Plant response rating, Rice (rice): 0
- Pigweed plant response rating (pigweed [15]; 125 g ai/ha): 0
- Plant response rating, Pigweed (pigweed [15]; 500 g ai/ha): 0
- Plant response rating, Sedge, Umbrella (sedge, umbrella): 0
- Morningglory plant response rating (0 to 100 scale) (morningglory [16]; 125 g ai/ha): 0
- Morningglory plant response rating (morningglory [16]; [21]): 0
- Velvetleaf plant response rating (velvetleaf [17]; 125 g ai/ha): 0
- Plant response rating, Velvetleaf (velvetleaf [17]; 500 g ai/ha): 0

Compound: N#Cc1cccc(Oc2ncc(I)cn2)c1-n1cc(Cl)cn1 [Compound 75]
- Plant response rating, Barnyardgrass (barnyardgrass [1]; [18]): 30
- Plant response rating, Barnyardgrass (barnyardgrass [1]; [22]): 70
- Plant response rating, Corn (corn [2]; [18]): 0
- Plant response rating, Corn (corn [2]; [22]): 40
- Plant response rating, Velvetleaf (velvetleaf [3]; [18]): 40
- Velvetleaf plant response rating (velvetleaf [3]; [20]): 80
- Plant response rating, Foxtail, Giant (giant foxtail [4]; [18]): 40
- Foxtail, Giant plant response rating (giant foxtail [4]; [20]): 100
- Plant response rating, Crabgrass, Large (large (Lg) crabgrass [5]; [18]): 20
- Plant response rating, Crabgrass, Large (large (Lg) crabgrass [5]; [22]): 70
- Plant response rating, Barnyardgrass (barnyardgrass [6]; [18]): 20
- Barnyardgrass plant response rating (barnyardgrass [6]; [20]): 70
- Plant response rating, Morningglory (morningglory [7]; 125 g ai/ha): 50
- Plant response rating, Morningglory (morningglory [7]; 500 g ai/ha): 60
- Plant response rating, Ducksalad (Heteranthera limosa): 60
- Plant response rating, Crabgrass, Large (large (Lg) crabgrass [8]; [18]): 70
- Crabgrass, Large plant response rating (large (Lg) crabgrass [8]; [20]): 100
- Plant response rating, Foxtail, Giant (giant foxtail [9]; 125 g ai/ha): 10
- Plant response rating, Foxtail, Giant (giant foxtail [9]; 500 g ai/ha): 80
- Plant response rating, Wheat (wheat [10]; [18]): 0
- Wheat plant response rating (wheat [10]; [20]): 0
- Plant response rating, Corn (corn [11]; [18]): 0
- Corn plant response rating (corn [11]; [20]): 10
- Plant response rating, Wheat (wheat [12]; 125 g ai/ha): 0
- Plant response rating, Wheat (wheat [12]; 500 g ai/ha): 0
- Plant response rating, Pigweed (pigweed [13]; [18]): 100
- Pigweed plant response rating (pigweed [13]; [20]): 100
- Plant response rating, Barnyardgrass (barnyardgrass [14]): 0
- Plant response rating, Rice (rice): 0
- Plant response rating, Pigweed (pigweed [15]; 125 g ai/ha): 70
- Plant response rating, Pigweed (pigweed [15]; 500 g ai/ha): 100
- Plant response rating, Sedge, Umbrella (sedge, umbrella): 50
- Plant response rating, Morningglory (morningglory [16]; [18]): 20
- Morningglory plant response rating (morningglory [16]; [20]): 30
- Plant response rating, Velvetleaf (velvetleaf [17]; 125 g ai/ha): 40
- Plant response rating, Velvetleaf (velvetleaf [17]; 500 g ai/ha): 70
